In patent EP2468728A1, “2-(1-phenyl-4,5,6,7-tetrahydro-1H-indazol-4-YL)ethylamine derivatives useful as sigma receptor inhibitors” (Laboratorios del. Dr. Esteve, S.A., priority 2010, dated 2012) one finds inhibition data, which are given here for three compounds.

In this experiment the target is σ1-receptor (Cavia porcellus, UniProt Q60492). Put plainly: sigma-1 receptor binding assay, [3H](+)-pentazocine, brain membranes. Particulars: 1µM compound; [3H](+)-pentazocine 0.5 nM; guinea pig brain membranes; 37°C for 150 min; read-out: binding sigma-1 % Inh (1µM). Here is the method: Some representative compounds of the invention were tested for their activity as sigma (sigma-1) inhibitors. The following protocols were followed:
Brain membrane preparation and binding assays for the σ1-receptor were performed as described (DeHaven-Hudkins et al., 1992) with some modifications. In brief, guinea pig brains were homogenized in 10 vols. (w/v) of Tris-HCl 50 mM 0.32 M sucrose, pH 7.4, with a Kinematica Polytron PT 3000 at 15000 r.p.m. for 30 s. The homogenate was centrifuged at 1000g for 10 min at 4°C and the supernatants collected and centrifuged again at 48000g for 15 min at 4°C. The pellet was resuspended in 10 volumes of Tris-HCl buffer (50 mM, pH 7.4), incubated at 37°C for 30 min, and centrifuged at 48000g for 20 min at 4°C. Following this, the pellet was resuspended in fresh Tris-HCl buffer (50 mM, pH 7.4) and stored on ice until use.
Each assay tube contained 10 µL of [^3H](+)-pentazocine (final concentration of 0.5 nM), 900 µL of the tissue suspension to a final assay volume of 1 mL and a final tissue concentration of approximately 30 mg tissue net weight/mL. Non-specific binding was defined by addition of a final concentration of 1 µM haloperidol. All tubes were incubated at 37°C for 150 min before termination of the reaction by rapid filtration over Schleicher & Schuell GF 3362 glass fibre filters [previously soaked in a solution of 0,5% polyethylenimine for at least 1 h]. Filters were then washed with four times with 4 mL of cold Tris-HCl buffer (50 mM, pH 7.4). Following addition of scintillation cocktail, the samples were allowed to equilibrate overnight. The amount of bound radioactivity was determined by liquid scintillation spectrometry using a Wallac Winspectral 1414 liquid scintillation counter. Protein concentrations were determined by the method of Lowry et al. (1951).

Molecules are shown by their SMILES.

Sequence of σ1-receptor (Q60492 whole entry): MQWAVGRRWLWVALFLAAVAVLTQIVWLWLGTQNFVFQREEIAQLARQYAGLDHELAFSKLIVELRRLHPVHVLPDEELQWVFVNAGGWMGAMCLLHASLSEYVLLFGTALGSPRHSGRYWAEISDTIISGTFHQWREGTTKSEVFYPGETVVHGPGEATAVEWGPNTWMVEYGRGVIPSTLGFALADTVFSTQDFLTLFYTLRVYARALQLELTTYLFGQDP

As to `[O-][N+]1(CC[C@@H]2CCCc3c2cnn3-c2ccccc2)CCOCC1` [Example 5, (S)-4-(2-(1-phenyl-4,5,6,7-tetrahydro-1H-indazol-4-yl)ethyl)morpholine N-oxide], the inhibition at 1 µM was 98%.

`[O-][N+]1(CC[C@H]2CCCc3c2cnn3-c2ccccc2)CCOCC1` [Example 3, (R)-4-(2-(1-phenyl-4,5,6,7-tetrahydro-1H-indazol-4-yl)ethyl)morpholine N-oxide]: the inhibition at 1 µM is 76.4%.

As for `[O-][N+]1(CCC2CCCc3c2cnn3-c2ccccc2)CCOCC1` (stereo not drawn) [Example 1, 4-(2-(1-phenyl-4,5,6,7-tetrahydro-1H-indazol-4-yl)ethyl)morpholine N-oxide], the inhibition at 1 µM stood at 60%.
